Earlier results, collected in publication PMC2931793 (Journal of neuroscience methods, 2008).

System: IDE
Conditions: ref Song et al., 2001

Row | Substance | Vmax of IDE-mediated cleavage
1 | Abz-GGFLRKGVQ-EDDnp | ~ 0.2 μmol min^−1 mg^−1
2 | β-endorphin | 2.6 µmol/min/mg
